Our source for the melting point and solubility values is patent US20130245006A1, “NOVEL INDOLIZINE DERIVATIVES, AND PREPARATION AND THERAPEUTIC USE THEREOF” (SANOFI, priority 2010, published 2013).

The melting point is the temperature of the solid-liquid transition. Broadly, the solubility is the dissolved amount per volume that the medium holds.

≈ marks a conversion by molar mass, not a printed value. Where a name gives a salt, the structure may show the parent alone.

Experiment in one series: not given
Details: not given
Take `CCc1cc2cc(C(=O)N(CC)Cc3cc(C)on3)ccn2c1C(=O)c1ccc(CCCNC(C)(C)C)cc1` [compound 46, 3-[4-(3-tert-Butylaminopropyl)benzoyl]-2-ethylindolizine-7-carboxylic acid ethyl(5-methylisoxazol-3-ylmethyl)amide]: the melting point is 175 °C. On to `CCc1cc2cc(C(=O)N3CCNC(=O)CC3)ccn2c1C(=O)c1ccc(CCCNC2CCCC2)cc1` [compound 53, 1-{3-[4-(3-Cyclopentylaminopropyl)benzoyl]-2-ethylindolizine-7-carbonyl}[1,4]diazepam-5-one], for which the melting point stood at 176 °C.

`CCOCCN(CC)C(=O)c1ccn2c(C(=O)c3ccc(CCCNC4CCCC4)cc3)c(CC)cc2c1` [compound 37, 3-[4-(3-Cyclopentylaminopropyl)benzoyl]-2-ethylindolizine-7-carboxylic acid (2-ethoxyethyl)ethylamide] returned a melting point of 146.4 °C.

In turn, `CCc1cc2cc(C(=O)N(CC)Cc3nnn(C)n3)ccn2c1C(=O)c1ccc(CCC(C)(C)NC(C)(C)C)cc1` (as salt: hydrochloride) [Compound No. 18, 3-[4-(3-tert-Butylamino-3-methylbutyl)benzoyl]-2-ethylindolizine-7-carboxylic acid ethyl(2-methyl-2H-tetrazol-5-ylmethyl)amide] yielded a melting point of 122 °C. The same measure, in the same setting: for `CCN[C@@H](CCc1ccc(C(=O)c2c(CC)cc3cc(C(=O)N(CC)Cc4nnn(C)n4)ccn23)cc1)C(C)C` (as salt: hydrochloride) [Compound No. 20, 2-Ethyl-3-[4-((S)-3-ethylamino-4-methylpentyl)benzoyl]indolizine-7-carboxylic acid ethyl(2-methyl-2H-tetrazol-5-ylmethyl)amide] the value was 100 °C; for `CCc1cc2cc(C(=O)O[C@H]3CNC(=O)C3)ccn2c1C(=O)c1ccc(CCCNC(C)(C)C)cc1` [compound 52, 3-[4-(3-tert-Butylaminopropyl)benzoyl]-2-ethylindolizine-7-carboxylic acid (R)-5-oxopyrrolidin-3-yl ester], 162 °C.

With `CCc1cc2cc(C(=O)N(CC)Cc3cnn(C)c3)ccn2c1C(=O)c1ccc(CCCNC(C)(C)C)cc1` [compound 45, 3-[4-(3-tert-Butylaminopropyl)benzoyl]-2-ethylindolizine-7-carboxylic acid ethyl(1-methyl-1H-pyrazol-4-ylmethyl)amide], the melting point worked out at 173 °C.

Consider `CCc1cc2cc(C(=O)OCc3nnn(C)n3)ccn2c1C(=O)c1ccc(CCCNC(C)(C)C)cc1` [compound 49, 3-[4-(3-tert-Butylaminopropyl)benzoyl]-2-ethylindolizine-7-carboxylic acid 2-methyl-2H-tetrazol-5-ylmethyl ester], for which the melting point was found to be 203 °C. Consider `CCc1cc2cc(C(=O)N(CC)Cc3nnn(C)n3)ccn2c1C(=O)c1ccc(CCCNC(C)(C)C)cc1` (as salt: hydrochloride) [Compound No. 17, 3-[4-(3-tert-Butylaminopropyl)benzoyl]-2-ethylindolizine-7-carboxylic acid ethyl(2-methyl-2H-tetrazol-5-ylmethyl)amide], for which the melting point was 172 °C. For `CCCCc1cc2cc(C(=O)N(CC)CC)ccn2c1C(=O)c1ccc(C2CCNCC2)cc1` [compound 66, 2-Butyl-3-(4-piperidin-4-yl-benzoyl) indolizine-7-carboxylic acid diethylamide], the melting point came out at 149.6 °C. The compound `CCc1cc2cc(C(=O)N3CCNC(=O)C3)ccn2c1C(=O)c1ccc(CCCNC(C)(C)C)cc1` [compound 38, 4-{3-[4-(3-tert-Butylaminopropyl)benzoyl]-2-ethylindolizine-7-carbonyl}piperazin-2-one] yielded a melting point of 122 °C.

Another series in a line: Solubility by HPLC relative to a reference sample. The series is classed as physicochemical. The settings on record: aqueous buffer, phosphate buffer, at the pH given. How it is done: The evaluation of the solubility of the compounds of the invention is carried out at pH 4 (using a phosphate buffer, […]) by HPLC using an H2O/CH3CN/CH3SO3H gradient, relative to a reference sample (a dilute solution of the product to be evaluated which serves as an internal control). The solubility S results are expressed in mg/ml. Generally, the compounds of the present invention have a solubility S≧4 mg/ml at pH≧4. Among them, mention may be made of the solubilities of the following compounds in the table below: […]
As for `CCc1cc2cc(C(=O)N(CC)Cc3cc(C)on3)ccn2c1C(=O)c1ccc(CCCNC(C)(C)C)cc1` [compound 46, 3-[4-(3-tert-Butylaminopropyl)benzoyl]-2-ethylindolizine-7-carboxylic acid ethyl(5-methylisoxazol-3-ylmethyl)amide], the solubility came to 1730 µg/mL (≈ 3.27 mM). Still for that read-out and setting: to `CCc1cc2cc(C(=O)N3CCNC(=O)CC3)ccn2c1C(=O)c1ccc(CCCNC2CCCC2)cc1` [compound 53, 1-{3-[4-(3-Cyclopentylaminopropyl)benzoyl]-2-ethylindolizine-7-carbonyl}[1,4]diazepam-5-one] belongs 6930 µg/mL (≈ 13.5 mM).
